Measurements: patent US20250018048A1, “FLUCONAZOLE-COX INHIBITOR HYBRIDS: A DUAL-ACTING CLASS OF ANTIFUNGAL AZOLES” (Ramot at Tel-Aviv University Ltd., priority 2022, published 2025)
In brackets after ≈: the same amount, converted by molar mass. Entries after “also recorded” stand apart in the source; their conditions may differ.

Key:
Type in all cases: cell-based
[1] = test system: C. albicans 742 (erg11ΔΔ/erg3ΔΔ mutant C. albicans strain); experiment: MIC80 broth double-dilution assay, strain lacking CYP51; conditions: 24 h; for MIC80 against C. albicans 742: YPAD medium, 30° C., erg11ΔΔ/erg3ΔΔ mutant lacking CYP51; for MIC80: Candida albicans, read-out: MIC80 against C. albicans 742
Summary of the method: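 Double-knockout C. albicans and parent SN152 grown in YPAD at 30 °C with serial double dilutions from 64 to 0.003 μg/mL; OD600 read after 24 h (growth followed over 48 h). MIC80 taken as >80% OD600 reduction versus no-drug wells; triplicate, two independent experiments.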

C. albicans SN152 = experiment: Disk diffusion assay for antifungal tolerance; conditions: casitone agar, disk with 25 μg, 30° C.
Method: (§1) To investigate how tolerance is affected by the azole-COX inhibitor hybrids, a comparison of hybrids 1 and 5 to FLC and VOR in a disk diffusion assay was performed. Tolerance was evaluated by comparing the zone of inhibition after 24 h to that after 48 h. The assay was carried out on three representative strains: C. albicans, C. parapsilosis, and C. tropicalis (FIG. 7).
(§2) As shown, compared to FLC and VOR, azole-COX inhibitor hybrids 1 and 5 display reduced antifungal tolerance. Disk diffusion assays were carried out on casitone agar plates containing disks loaded with 25 μg of the tested hybrids. Plates were imaged after 24 h to evaluate antifungal activity (left half of the plate image) and after 48 h to evaluate tolerance (right half of the plate image).
(§3) Disk diffusion assay: Antifungal activities of select hybrids against C. albicans SN152, C. parapsilosis ATCC 22019, and C. tropicalis 660 were confirmed by the disk diffusion assay. Strains were streaked from frozen culture onto YPAD agar and incubated for 24 h at 30° C. Two or three colonies were placed into 1 mL of PBS solution, and OD600 was determined with a TECAN Infinite. OD600 was adjusted to 0.02 for C. albicans SN152 and to 0.025 for C. parapsilosis ATCC 22019 and C. tropicalis 660 by dilution with PBS. Aliquots of 200 μL of the diluted cultures of each strain were plated onto 15-mL casitone agar plates and spread using sterile beads (3 mm, Fisher Scientific). After the plates dried, a single disk (6-mm diameter, Becton Dickinson) with 25 μg of the hybrid being tested was placed in the center of each plate. Plates were then incubated at 30° C. and photographed under the same imaging conditions after 24 h and 48 h. FLC and VOR were used as control drugs.

C. tropicalis 660 [2] = experiment: Disk diffusion assay for antifungal tolerance; conditions: casitone agar, disk with 25 μg, 30° C.
Method: as §1, §2, §3

[3] = test system: C. parapsilosis ATCC 22019; experiment: Disk diffusion assay for antifungal tolerance; conditions: casitone agar, disk with 25 μg, 30° C.
Method: as §1, §2, §3

C. albicans SC5314 = experiment: MIC80 broth double-dilution assay; conditions: YPAD medium, 30° C., 24 h; for MIC80: Candida albicans, SC5314, read-out: MIC80 against C. albicans SC5314
Summary of the method: (§4)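 CLSI M27-A3 (modified) microdilution, YPAD, 0.003–64 μg/mL two-fold series; inoculum 1×10^−3 OD600 then 1:100. 24 h, 30° C. Endpoint: OD600 >80% below no-drug control.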

C. albicans ATCC 90028 = experiment: MIC80 broth double-dilution assay; conditions: YPAD medium, 30° C., 24 h; for MIC80: Candida albicans, ATCC90028, read-out: MIC80 against C. albicans 90028
Summary of the method: as §4

C. albicans ATCC 24433 = experiment: MIC80 broth double-dilution assay; conditions: YPAD medium, 30° C., 24 h; for MIC80: Candida albicans, ATCC24433, read-out: MIC80 against C. albicans 24433
Summary of the method: as §4

C. albicans P-87 = experiment: MIC80 broth double-dilution assay; conditions: YPAD medium, 30° C., 24 h; for MIC80: Candida albicans, P87, read-out: MIC80 against C. albicans P-87
Summary of the method: as §4

C. tropicalis 660 [4] = experiment: MIC80 broth double-dilution assay; conditions: YPAD medium, 30° C., 24 h; for MIC80: Candida tropicalis, 660, read-out: MIC80 against C. tropicalis 660
Summary of the method: as §4

C. dubliniensis T-99 = experiment: MIC80 broth double-dilution assay; conditions: YPAD medium, 30° C., 24 h; for MIC80: Candida dubliniensis, T99, read-out: MIC80 against C. dubliniensis T-99
Summary of the method: as §4

[5] = test system: C. parapsilosis ATCC 22019; experiment: MIC80 broth double-dilution assay; conditions: YPAD medium, 30° C., 24 h; for MIC80: Lodderomyces parapsilosis, ATCC22019, read-out: MIC80 against C. parapsilosis 22019
Summary of the method: as §4

| SMILES | MIC80 against C. albicans 742 [1] | Tolerance: zone of inhibition after 48 h compared with 24 h (C. albicans SN152) | Tolerance: zone of inhibition after 48 h compared with 24 h (C. tropicalis 660 [2]) | Tolerance: zone of inhibition after 48 h compared with 24 h [3] | MIC80 against C. albicans SC5314 (C. albicans SC5314) | MIC80 against C. albicans 90028 (C. albicans ATCC 90028) | MIC80 against C. albicans 24433 (C. albicans ATCC 24433) | MIC80 against C. albicans P-87 (C. albicans P-87) | MIC80 against C. tropicalis 660 (C. tropicalis 660 [4]) | MIC80 against C. dubliniensis T-99 (C. dubliniensis T-99) | MIC80 [1] | MIC80 (C. albicans SC5314) | MIC80 (C. albicans ATCC 90028) | MIC80 (C. albicans ATCC 24433) | MIC80 (C. albicans P-87) | MIC80 (C. tropicalis 660 [4]) | MIC80 [5] | MIC80 (C. dubliniensis T-99) | MIC80 against C. parapsilosis 22019 [5] |
| --- | --- | --- | --- | --- | --- | --- | --- | --- | --- | --- | --- | --- | --- | --- | --- | --- | --- | --- | --- |
| C[C@H](C(=O)NC[C@](O)(Cn1cncn1)c1ccc(F)cc1F)c1ccc(-c2ccccc2)c(F)c1 [Hybrid 5] | 64 µg/mL (≈ 133 µM) | reduced tolerance | reduced tolerance | reduced tolerance; also recorded: markedly lower than that to VOR | 0.007 µg/mL (≈ 0.0146 µM) | 0.015 µg/mL (≈ 0.0312 µM) | 0.03 µg/mL (≈ 0.0624 µM) | 0.015 µg/mL (≈ 0.0312 µM) | 0.06 µg/mL (≈ 0.125 µM) | 0.5 µg/mL (≈ 1.04 µM) | – | – | – | – | – | – | – | – | – |
| C[C@@H](c1ncncc1F)[C@](O)(Cn1cncn1)c1ccc(F)cc1F [VOR, voriconazole, reference compound] | inactive | covered by drug tolerant colonies | the drug tolerant subpopulation was smaller | covered by drug tolerant colonies | – | – | – | – | – | – | > 64 µg/mL | 0.007 µg/mL (≈ 0.02 µM) | 0.007 µg/mL (≈ 0.02 µM) | 0.015 µg/mL (≈ 0.0429 µM) | 0.007 µg/mL (≈ 0.02 µM) | 0.12 µg/mL (≈ 0.344 µM) | 0.015 µg/mL (≈ 0.0429 µM) | 0.03 µg/mL (≈ 0.0859 µM) | – |
| OC(Cn1cncn1)(Cn1cncn1)c1ccc(F)cc1F [FLC, fluconazole] | inactive | covered by drug tolerant colonies | the drug tolerant subpopulation was smaller | covered by drug tolerant colonies | – | – | – | – | – | – | > 64 µg/mL | 0.5 µg/mL (≈ 1.63 µM) | 0.5 µg/mL (≈ 1.63 µM) | 1 µg/mL (≈ 3.27 µM) | 1 µg/mL (≈ 3.27 µM) | 1 µg/mL (≈ 3.27 µM) | 1 µg/mL (≈ 3.27 µM) | 0.25 µg/mL (≈ 0.816 µM) | – |
| CC(C)Cc1ccc([C@H](C)C(=O)NC[C@](O)(Cn2cncn2)c2ccc(F)cc2F)cc1 [Hybrid 1] | 64 µg/mL (≈ 145 µM) | reduced tolerance | reduced tolerance | reduced tolerance | 0.003 µg/mL (≈ 0.00678 µM) | 0.003 µg/mL (≈ 0.00678 µM) | 0.007 µg/mL (≈ 0.0158 µM) | 0.003 µg/mL (≈ 0.00678 µM) | 0.03 µg/mL (≈ 0.0678 µM) | 0.06 µg/mL (≈ 0.136 µM) | – | – | – | – | – | – | – | – | 0.007 µg/mL (≈ 0.0158 µM) |
